Experimental data from patent US20260028596A1, “METHOD FOR PRODUCING HIGH YIELD AND HIGH QUALITY RECOMBINANT ADENO-[…]” (Aavatar Therapeutics Co.,Ltd., priority 2022, published 2026).

Assays:
[1] = system: Host cells capable of producing recombinant adeno-associated virus of the AAV9 serotype (Expi293F cells); test: Osmotic shock process: viral genomes (vg) recovered from media of rAAV-producing host cells; format: cell-based; conditions: 0.5 M salt as osmotic shock reagent, added 4 days after transfection, 3 hours; vs negative control NT (FIG. 2)
Protocol: (§1) Expi293F cells (Cat #A14527, Thermo) were grown in Expi293 Expression Medium (Cat #A14351-02, Thermo) supplemented with 1% penicillin-streptomycin (Cat #15140122, Thermo). Then, the cells were maintained under serum-free suspension culture conditions. Herein, the serum-free suspension culture conditions were as follows: 120 rpm stirring rate in a shaker incubator (Cat #NB-206CL, N-biotek, South Korea); 37° C.; 8% CO2; and 85% relative humidity.
(§2) Expi293F cells were seeded in Expi293F expression media at a density of 2.5×10^6 cells per 1 mL and cultured for 3 hours. Then, the cells were transfected using 25-kDa linear PEI (Cat #23966-1, Polyscience, USA) along with the three plasmids (pHelper[Cat #112867, Addgene], pRC9n[Cat #112865, Addgene], and pAAV[Cat #105530, Addgene]), respectively. Specifically, the plasmids were mixed in DMEM (Cat #10569010, Thermo) at 1/10 the volume of cells to be transfected. Next, PEI was added to DNAs diluted in DMEM. After an additionally 20-minute culture, a DNA-PEI complex was added to the cells.
The following experiment was conducted to determine a yield improvement effect of the recombinant adeno-associated virus production process including the osmotic shock process depending on osmotic shock conditions:
Host cells capable of producing recombinant adeno-associated virus of the AAV9 serotype were prepared according to Experimental Examples 1.1 to 1.3.
For each experimental group, 2.5×10^6 cells per mL were seeded in a 30 mL culture vessel, and experiments were conducted using a total of 16 culture vessels for each experimental group.
On the basis of the time of transfection of the recombinant adeno-associated virus expression plasmid into the host cells, an osmotic shock reagent was added 4 days later, the condition was maintained for 3 hours, sample media and/or cells were harvested, and the viral genome was (vg) counts were measured.

[2] = system: Host cells capable of producing a recombinant adeno-associated virus of a AAV9 serotype (Expi293F cells); test: Pre-culture treatment process: rAAV yield (total vg) of host cells; format: cell-based; conditions: pre-culture agent with PEI (1 mg/ml), Nocodazole 4 uM and/or M344 2.5 uM, 4 hours after transfection; osmotic shock after 4 days (FIG. 3)
Protocol: as §1, §2
The following experiment was conducted to determine a yield improvement effect of the recombinant adeno-associated virus production process including the pre-culture treatment process depending on pre-culture treatment conditions: […]

| SMILES | number of viral genomes recovered from the media, by salt type [1] | yield of recombinant adeno-associated virus in the host cells [2] |
| --- | --- | --- |
| [Cl-].[Cl-].[Mg+2] [MgCl2, magnesium chloride] | significant increase in the number of viral genomes recovered from the media |  |
| [Cl-].[K+] [KCl, potassium chloride] | significant increase in the number of viral genomes recovered from the media |  |
| [Cl-].[Na+] [NaCl, sodium chloride] | significant increase in the number of viral genomes recovered from the media |  |
| COC(=O)Nc1nc2ccc(C(=O)c3cccs3)cc2[nH]1 [Nocodazole] |  | yield of recombinant adeno-associated virus in the host cells was increased |
| CN(C)c1ccc(C(=O)NCCCCCCC(=O)NO)cc1 [M344] |  | yield of recombinant adeno-associated virus in the host cells was increased |
